Measured values as given in PMC6405842, “Identification of a novel scaffold for a small molecule GPR139 receptor agonist” (Scientific Reports, 2019).
Like-named read-outs stand apart in the source and are kept apart here.

How the values were obtained:
GPR139 [1] = biological target: T1, GPR139 (Homo sapiens, UniProt Q6DWJ6); experiment: Fluo-4 calcium mobilization assay, agonist mode, concentration-response curves in CHO-GPR139 cells; format: cell-based; conditions: for pEC50 ± S.E.M. / EC50 / Emax ± S.E.M.: CHO-GPR139 cells; for EC50: at least three independent concentration-response curves in duplicate, read-out: EC50; for Emax ± S.E.M.: normalized to buffer (0%) and 8 μM 1a (100%)
T1 construct: host or cells: CHO-k1
T1 sequence (Q6DWJ6 1-353): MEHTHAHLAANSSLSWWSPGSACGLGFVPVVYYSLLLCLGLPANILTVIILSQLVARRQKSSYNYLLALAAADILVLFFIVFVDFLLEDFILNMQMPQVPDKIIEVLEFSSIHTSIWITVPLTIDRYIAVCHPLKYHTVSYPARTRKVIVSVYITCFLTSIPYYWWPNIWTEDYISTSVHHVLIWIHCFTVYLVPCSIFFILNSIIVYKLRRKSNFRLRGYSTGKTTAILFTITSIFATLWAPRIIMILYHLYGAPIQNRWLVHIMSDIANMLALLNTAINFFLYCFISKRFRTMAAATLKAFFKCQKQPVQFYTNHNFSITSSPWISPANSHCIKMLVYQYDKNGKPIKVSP
Experimental: (§1) All compounds were tested on a CHO-k1 cell line stably expressing GPR139 (CHO-GPR139)[11] kindly provided by H. Lundbeck A/S, Denmark. GPR139-specific responses were assessed using a CHO-k1 cell line stably expressing the muscarinic acetylcholine receptor M1 (CHO-M1) (The Missouri S&T cDNA Resource Center, # CEM100TN00). The CHO-GPR139 cells were grown in Dulbecco’s modified Eagle’s medium (DMEM) F12-Kaighn’s (ThermoFisher Scientific # 21127) supplemented with 10% dialyzed fetal bovine serum (United States origin; ThermoFisher Scientific # 26400), 1% GlutaMAX-I (100X) (ThermoFisher Scientific # 35050061), and 100 units/mL penicillin and 100 µg/mL streptomycin (ThermoFisher Scientific # 15140122) and 1 mg/mL geneticin (ThermoFisher Scientific # 11811031). The CHO-M1 cells were grown in Ham’s F12 (ThermoFisher Scientific # 21765) supplemented with 10% fetal bovine serum (South American origin; ThermoFisher Scientific # 10270) + 100 units/mL penicillin and streptomycin and 0.25 mg/mL geneticin.
The Fluo-4 Ca^2+-assay was performed as described previously, with minor modifications. After 1 hour incubation with the Fluo-4 dye, the CHO-GPR139 cells were washed with 100 μL HEPES buffer (Hank’s Balanced Salt Solution (HBBS, ThermoFisher Scientific # 14175053) supplemented with 20 mM HEPES, 1 mM MgCl2, 1 mM CaCl2, pH = 7.4) and the compound library was then added in concentrations between 25–63 μM dissolved in HEPES buffer (supplemented with 2.5 mM probenecid and 1% DMSO) and pre-incubated for 10 min at 37 °C. 33 μL of 3.2 μM 1a were added automatically after baseline measurements. […] This set-up allowed us to identify both antagonists and agonists (Fig. 2).
Each compound, for which a concentration response curve was made, was tested at least three times in duplicate measurements. After the incubation with the Fluo-4 dye and a wash, 100 μL HEPES buffer (supplemented with 2.5 mM probenecid) was added to each well and incubated for 10 minutes at 37 °C before recording. 33 μL of compounds (4× concentrated) were added automatically after baseline measurements.
(§2) The Ca^2+ and ERK responses were normalized as indicated and the concentration response curves were fitted by Prism 6 software (GraphPad) using nonlinear regression in a sigmoidal model with variable slope, as has been previously described.

[2] = biological target: T2, muscarinic acetylcholine receptor M1 (Homo sapiens, UniProt P11229); experiment: Calcium mobilization counter-screen in CHO-M1 cells; format: cell-based; conditions: concentration from which the calcium response is nonspecific
T2 construct: host or cells: CHO-k1
T2 sequence (P11229 1-460): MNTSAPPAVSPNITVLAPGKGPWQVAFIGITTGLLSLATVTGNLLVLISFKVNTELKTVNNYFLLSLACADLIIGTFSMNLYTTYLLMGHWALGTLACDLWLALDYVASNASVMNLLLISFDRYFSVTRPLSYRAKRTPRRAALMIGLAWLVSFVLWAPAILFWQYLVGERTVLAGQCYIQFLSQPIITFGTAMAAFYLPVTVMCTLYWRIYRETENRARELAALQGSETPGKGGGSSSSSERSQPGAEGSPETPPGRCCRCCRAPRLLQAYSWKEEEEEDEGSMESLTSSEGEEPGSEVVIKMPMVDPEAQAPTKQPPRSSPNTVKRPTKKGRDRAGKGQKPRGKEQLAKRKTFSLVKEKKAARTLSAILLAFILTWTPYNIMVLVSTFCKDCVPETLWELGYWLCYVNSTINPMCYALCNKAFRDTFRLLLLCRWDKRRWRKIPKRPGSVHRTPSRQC
Experimental: as §1
The primary screening of 4,000 diverse screening compounds on GPR139, led us to identify 108 initial actives in GPR139-expressing cells. […] We excluded compounds that had (1) an effect on another simultaneously tested GPCR (data not shown), (2) reactive groups, or (3) poor predicted solubility. 52 of the active compounds were re-purchased for validation, which were tested at three concentrations (100, 50 and 25 μM) using the same methodology as in the screening campaign. […] None of the 11 hits promoted calcium mobilization in the M1 receptor cells (data not shown). The 11 hits were then screened in pure agonist mode (i.e., without the presence of 1a) to evaluate if they were agonists or antagonists (Fig. 3 and Supplementary Table S1). All 11 hits were agonists.
When screening the compounds as antagonists they were pre-incubated for 10 min as in the HTS. 33 μL of 3.2 μM 1a on the CHO-GPR139 cells or 20 μM carbachol on the CHO-M1 cells were added automatically after baseline measurements.

GPR139 [3] = biological target: T1, GPR139; experiment: Phospho-ERK1/2 HTRF assay in CHO-GPR139 cells; format: cell-based; conditions: ERK phosphorylation; for EC50 / pEC50 ± SEM: CHO-GPR139 cells; for Emax / Emax ± SEM: expressed relative to FBS positive control
Experimental: All compounds were tested on a CHO-k1 cell line stably expressing GPR139 (CHO-GPR139)[11] kindly provided by H. Lundbeck A/S, Denmark. GPR139-specific responses were assessed using a CHO-k1 cell line stably expressing the muscarinic acetylcholine receptor M1 (CHO-M1) (The Missouri S&T cDNA Resource Center, # CEM100TN00).
Phospho-ERK measurements were made using the Advanced Phospho-ERK1/2 (Thr202/Tyr204) HTRF kit by Cisbio (Codolet, France). Approximately 24 hours prior to the experiment, CHO-GPR139 cells were plated at 50,000 cells/well onto a 96-well plate and cultured as detailed above. Approximately 6 hours later, the media was aspirated, replaced with 50 μL serum-free media, and the cells were allowed to serum starve overnight. The day of the experiment, serial dilutions of the test compounds and controls were made in serum-free media at 2x final concentration. 50 μL of test compounds were added directly to the appropriate wells for 5 minute stimulation at 37 °C. At this point, the media and compounds were rapidly aspirated, lysis/blocking buffer was added, and cells were lysed on a shaker for 30 minutes at room temperature.
as §2

GPR139 [4] = biological target: T1, GPR139; conditions: proposed endogenous GPR139 ligands; cited from earlier work
[5] = read-out: pEC50 ± SEM (converted)
[6] = 5 minute stimulation, read-out: EC50

Row | Molecule | pEC50 ± S.E.M. (GPR139 [1]) | EC50 (GPR139 [1]) [nM] | Emax ± S.E.M. (GPR139 [1]) [%] | Note: Nonspecific ≥ concentration [2] | EC80 concentration (GPR139 [1]; used for second stimulation in the screen) [nM] | EC50 (GPR139 [3]; [5]) [nM] | Emax (GPR139 [3]) [%] | pEC50 ± SEM (GPR139 [3]) | EC50 (GPR139 [3]; [6]) [nM] | Emax ± SEM (GPR139 [3]) | EC50 (GPR139 [4]) [nM]
1 | COc1cccc(C(=O)CN2C(=O)NC(C)(c3ccc(Cl)cc3)C2=O)c1 (centres unmarked) [AC225] | 6.56 ± 0.05 | 280 | 120 ± 5 | Nonspecific ≥ 10 μM | – | – | – | – | – | – | –
2 | CC(C)COCCCNC(=O)NC(C)c1ccc(Cl)cc1Cl (centres unmarked) [AC183] | 6.74 ± 0.19 | 180 | 110 ± 10 | – | – | – | – | 7.41 ± 0.25 | 39 | 64.38 ± 5.28 | –
3 | CC1(c2ccc3c(c2)OCO3)NC(=O)N(CC(=O)c2ccc(Cl)s2)C1=O (centres unmarked) [AC134] | 6.09 ± 0.15 | 800 | 103 ± 5 | Nonspecific ≥ 40 μM | – | – | – | – | – | – | –
4 | N[C@@H](Cc1c[nH]c2ccccc12)C(=O)O [L-tryptophan, reference compound] | – | – | – | – | – | 759000 | 70.6 ± 8.59 | – | 770000 | – | –
5 | C=CCN(CC=C)C(=O)CN1C(=O)NC(C)(c2ccc3c(c2)OCCO3)C1=O (centres unmarked) [AC194] | 6.68 ± 0.02 | 210 | 106 ± 4 | – | – | – | – | 7.41 ± 0.30 | 39 | 62.32 ± 6.66 | –
6 | C[C@H](NC(=O)CNC(=O)c1cccc(Cl)c1)c1ccccc1 [7c, reference compound] | – | – | – | – | – | 12.9 | 89.1 ± 4.38 | – | – | – | –
7 | ACTH: adrenocorticotropic hormone, proposed endogenous GPR139 ligand (SYSMEHFRWGKPVGKKRRPVKVYPNGAEDESAEAFPLEF; Corticotropin; UniProt P01189 138-176, looked up) | – | – | – | – | – | – | – | – | – | – | 2100

Now from value to molecule, other results behind:

Row | pEC50 ± S.E.M. (GPR139 [1]) | EC50 (GPR139 [1]) [nM] | Emax ± S.E.M. (GPR139 [1]) [%] | Note: Nonspecific ≥ concentration [2] | EC80 concentration (GPR139 [1]; used for second stimulation in the screen) [nM] | EC50 (GPR139 [3]; [5]) [nM] | Emax (GPR139 [3]) [%] | pEC50 ± SEM (GPR139 [3]) | EC50 (GPR139 [3]; [6]) [nM] | Emax ± SEM (GPR139 [3]) | Molecule | EC50 (GPR139 [4]) [nM]
8 | – | – | – | – | 800 | 28.2 | 81.5 ± 4.12 | – | – | – | COc1cc(OC)cc(C(=O)NNC(=O)Nc2cccc3ccccc23)c1 [1a, reference compound] | –
9 | 6.05 ± 0.60 | 880 | 134 ± 26 | Nonspecific ≥ 30 μM | – | – | – | – | – | – | CC1Cc2ccccc2N1C(=O)CN1C(=O)NC(C)(c2ccc3c(c2)OCCO3)C1=O (centres unmarked) [AC208] | –
10 | 6.71 ± 0.14 | 190 | 103 ± 1 | – | – | – | – | 7.03 ± 0.14 | – | 78.70 ± 4.05 | CC1(c2ccc3c(c2)OCO3)NC(=O)N(CC(=O)N2CCc3ccccc32)C1=O (centres unmarked) [AC197] | –
11 | 7.02 ± 0.11 | 90 | 103 ± 1 | – | – | – | – | 7.65 ± 0.13 | 22 | 79.10 ± 3.19 | Cc1ccc(C(C)NC(=O)NCC(=O)NCC2CC2)cc1F (centres unmarked) [AC177] | –
12 | 6.42 ± 0.06 | 380 | 94 ± 3 | Nonspecific ≥ 100 μM | – | – | – | – | – | – | CCc1cccc2c(C(=O)CN3C(=O)NC(C)(c4ccc5c(c4)OCO5)C3=O)c[nH]c12 (centres unmarked) [AC206] | –
13 | – | – | – | Nonspecific ≥ 50 μM | – | – | – | – | – | – | CCCCC/C=C/C/C=C/CCCCCCCC(=O)NC(C)c1ccccc1 (centres unmarked) [AC223] | –
14 | 7.03 ± 0.02 | 90 | 106 ± 1 | – | – | – | – | 7.51 ± 0.28 | 31 | 69.37 ± 8.01 | COc1cc(OC)cc(C(=O)NN2C(=O)NC(C)(c3ccccc3)C2=O)c1 (centres unmarked) [AC224] | –
15 | 6.13 ± 0.14 | 740 | 104 ± 1 | Nonspecific ≥ 10 μM | – | – | – | – | – | – | CC(=O)c1c(C)[nH]c(C(=O)CN2C(=O)NC(C)(c3ccc4c(c3)OCCO4)C2=O)c1C (centres unmarked) [AC123] | –
